Laboratory results from patent publication US20160130293A1, “NOVEL COMPOUND DERIVED FROM PLANT OF GENUS QUAMOCLIT AND COMPOSITION CONTAINING SAME AS ACTIVE INGREDIENT FOR PREVENTING OR TREATING DIABETES” (KOREA RESEARCH INSTITUTE BIOSCIENCE, priority 2013, published 2016).

Columns and labels:
[1] = system: diabetic mice (Male C57BL/Ks DB/DB mouse); test: Blood glucose in diabetic mice treated orally for 4 weeks; assay type: in vivo; conditions: 1 mg/kg oral daily for 4 weeks, vs diabetic mouse control group, FIG. 4
Description: Normal mice and diabetic mice were treated with the Quamoclit-derived novel compound to determine the changes in diabetes indicators such as blood glucose and glycated hemoglobin.
(§1) 6-week-old mice (Male C57BL/6J mouse, 20 g, Central Lab. Animal Inc., Seoul) and 6-week-old diabetic mice (Male C57BL/Ks DB/DB mouse, 20 g, Central Lab. Animal Inc., Seoul) were purchased and acclimated under constant temperature (25° C.) and humidity (50%) for 1 week and used for the experiment.
(§2) Mice were classified into a normal mouse control group, a diabetic mouse control group, a diabetic mouse group treated with drug (glimepiride), a diabetic mouse group treated with the Quamoclit angulata-derived novel compound (KRIBB-BH-P, 1 mg/kg), and a diabetic mouse group treated with the Quamoclit angulata-derived novel compound (KRIBB-BH-SFP, 1 mg/kg), each group consisting of five mice. The treated mice were orally administered with the drug and compounds daily for 4 weeks. The change in blood glucose in mice of each group was measured every week, and after 4 weeks, blood was collected from each mouse to measure the concentration of glycated hemoglobin.

[2] = system: diabetic mice (Male C57BL/Ks DB/DB mouse); test: Glycated hemoglobin (HbA1c) in diabetic mice after 4 weeks, ELISA kit; assay type: in vivo; conditions: 1 mg/kg oral daily for 4 weeks
Description: as §1, §2
In order to reduce the complications developed in diabetic patients under treatment, it is important to maintain the level of blood glucose at an appropriate level. Since the levels of blood glucose measured at a certain time may be changed by various factors, the test of glycated hemoglobin (HbAlc) is most widely used for the purpose of determining the long-term change in blood glucose control. […]
In order to determine the effect of the Quamoclit angulata-derived novel compound on the glycated hemoglobin, blood was collected from each mouse in the normal mouse control group, the diabetic mouse control group, the diabetic mouse group treated with the Quamoclit angulata-derived novel compound (KRIBB-BH-P, 1 mg/kg), and the diabetic mouse group treated with the Quamoclit angulata-derived novel compound (KRIBB-BH-SFP, 1 mg/kg), in which the treated mice were orally administered with the compounds daily for 4 weeks, and the levels of glycated hemoglobin were measured using an ELISA kit (Cusabio biotech, Japan).

[3] = system: mice fed with high-fat diet (Male C57BL/6J); test: Fasting blood glucose test in high-fat diet mice after 2 weeks of treatment; assay type: in vivo, mouse; conditions: 1 mg/kg oral daily for 2 weeks, fasted 16 hours, FIG. 6
Description: 5-week-old mouse (Male C57BL/6J, 19 g, Koatech, Pyeongtaek, Korea) was purchased and acclimated under constant temperature (25° C.) and humidity (50%) for 1 week and used for the experiment. Mice were classified into a group fed with normal diet and a group fed with high-fat diet and the mice were fed for 2 weeks, each group consisting of five mice.
At 2 weeks after feeding with high-fat diet, the experimental mice were classified into a normal mouse control group, a diabetic mouse control group, a diabetic mouse group treated with drug (glimepiride), a diabetic mouse group treated with the Quamoclit angulata-derived novel compound (KRIBB-BH-P, 1 mg/kg), and a diabetic mouse group treated with the Quamoclit angulata-derived novel compound (KRIBB-BH-SFP, 1 mg/kg), and the treated mice were orally administered with the drug and compounds daily for 2 weeks. Then, the mice were fasted for 16 hours, and the level of blood glucose was measured.

[4] = system: Min6 cell line; test: Stimulation of insulin secretion in mouse pancreatic beta-cell line (Insulin ELISA); assay type: cell-based; conditions: 25 mM glucose, 0.5 ng/ml, 2 hours, vs 25 mM glucose negative control, FIG. 3
Description: The effect of the novel compound KRIBB-BH-SFP isolated from Quamoclit angulata on the stimulation of insulin secretion was determined in a mouse pancreatic beta-cell line, Min6 cell line.
Min6 cells (ATCC, USA) were cultured in HDMEM supplemented with 15% fetal bovine serum. To induce the expression of insulin in the Min6 cell line, the cells were plated on a 96 well plate at a density of 1×10^4 cell/plate and cultured in […] DMEM (high glucose) supplemented with 15% FBS for 72 hours. Then, the cells were washed with PBS buffer solution and cultured in HBSS buffer solution for 2 hours, and then, the buffer solution was replaced with HBSS buffer solution supplemented with 25 mM glucose. Then, the novel compound […] was added to a final concentration of 0.5 ng/ml, and the cells were cultured for 2 hours to determine the stimulation of insulin expression. Meanwhile, for use as a control, cells were treated with 5.5 mM glucose such that the insulin was not expressed. For use as a negative control, cells were treated with 25 mM glucose, and the level of insulin expression in these cells was compared to determine the effect of the novel compound (KRIBB-BH-SFP) derived from Quamoclit angulata on the stimulation of insulin expression. […]

Row | SMILES | level of blood glucose [1] | HbA1c [2] | level of blood glucose (fasting) [3] | level of insulin expression (insulin secreted from Min6 cells) [4] | level of glycated hemoglobin ([2]; in words)
1 | CCCCCC(CCCC(O)CC(=O)O)OC1OC(COC2OC(C)C(OC3CC(O)C(O)C(C)O3)CC2O)C(O)C(O)C1OC1CC(O)C(OC2CC(O)C(OC3CC(O)C(OC)C(C)O3)C(C)O2)C(C)O1 (stereo not drawn) [KRIBB-BH-P] | significantly reduced | 6.63 ± 0.70% | significantly reduced |  | 
2 | CCCCCC(CCCC(O)CC(=O)O)OC1OC(C)C(O)C(O)C1O (stereo not drawn) [KRIBB-BH-SFP] | significantly reduced | 6.51 ± 0.46% | significantly reduced | increased | significantly reduced
3 | CCCCCC(O)CCCC(O)CC(=O)O (stereo not drawn) [KRIBB-BH-SC] |  |  |  | increased | 
